Experimental data as given in ChEMBL document CHEMBL1134958 (Bioorg Med Chem Lett, 2002).

Assays:
Tryptase = Tryptase (Homo sapiens, UniProt Q9BZJ3+Q15661+Q9NRR2); experiment: Inhibitory concentration against human tryptase
[1] = Ratio of inhibitory activities against human tryptase to that of human urokinase plasminogen activator (microPa)
[2] = Ratio of inhibitory activities against human tryptase to that of human tissue plasminogen activator (tissue plasminogen activator)
[3] = Ratio of inhibitory activities against human tryptase to that of human plasmin
[4] = Ratio of inhibitory activities against human tryptase to that of human thrombin
[5] = Aqueous stability was evaluated as half life at 37 degree C at pH 9; type: physicochemical; details: aqueous solution
[6] = Ratio of inhibitory activities against human tryptase to that of human trypsin
[7] = Aqueous stability was evaluated as half life at 37 degree C at pH 7; type: physicochemical; details: aqueous solution

Row | SMILES | IC50 (Tryptase) [nM] | Ratio [1] | Ratio [2] | Ratio [3] | Ratio [4] | half-life [5] [h] | Ratio [6] | half-life [7] [h]
1 | CC(C)C(OC(=O)N1CCN(C(=O)N2C(=O)[C@H](CC3CCCN(C(=N)N)C3)[C@H]2C(=O)O)CC1)C(C)C (single isomer, unassigned) [listing 1 of 2 here] | 204 |  |  |  |  |  |  | 
2 | CC(C)C(OC(=O)N1CCN(C(=O)N2C(=O)[C@H](CC3CN(C(=N)N)C3)[C@H]2C(=O)O)CC1)C(C)C | 12 | 862 | 2840 | 394 | > 2840 | 14.4 | 7 | > 48
3 | N=C(N)N1CCC[C@@H](C[C@H]2C(=O)N(C(=O)N3CCN(C(=O)CCCCCc4ccccc4)CC3)[C@@H]2C(=O)O)C1 | < 1.7 | > 19400 | > 19400 | > 19400 | > 19400 | > 17.5 | > 3280 | > 48
4 | CC(C)C(OC(=O)N1CCN(C(=O)N2C(=O)[C@H](CC3CCCN(C(=N)N)C3)[C@H]2C(=O)O)CC1)C(C)C (stereo in doubt; form 1) [listing 1 of 2 here] |  | > 465 | > 465 | > 465 | > 465 |  | 258 | 
5 | N=C(N)N1CCCC(C[C@H]2C(=O)N(C(=O)N3CCN(C(=O)CCCCCc4ccccc4)CC3)[C@@H]2C(=O)O)C1 (stereo partly specified) | < 1.7 | > 17500 | > 19400 | > 16300 | > 19400 | > 17.5 | > 1940 | > 48
6 | CC(C)C(OC(=O)N1CCN(C(=O)N2C(=O)[C@H](CCCN=C(N)N)[C@H]2C(=O)O)CC1)C(C)C | 4 | 843 | 9170 | 364 | > 9170 | 7.3 | 5 | > 48
7 | N=C(N)NCCC[C@H]1C(=O)N(C(=O)N2CCN(C(=O)CCCCCc3ccccc3)CC2)[C@@H]1C(=O)O | < 1.7 | > 226 | > 16500 | > 26 | > 16500 |  | > 8 | 
8 | N=C(N)N1CCC[C@H](C[C@H]2C(=O)N(C(=O)N3CCN(C(=O)CCCCCc4ccccc4)CC3)[C@@H]2C(=O)O)C1 | < 1.7 | > 11800 | > 19400 | > 12900 | > 19400 | > 17.5 | > 3390 | > 48
9 | CC(C)C(OC(=O)N1CCN(C(=O)N2C(=O)[C@H](CC3CCCN(C(=N)N)C3)[C@H]2C(=O)O)CC1)C(C)C (stereo in doubt; form 2) [listing 1 of 2 here] | 63 |  |  |  |  |  |  | 
10 | N=C(N)N1CCCC(C[C@H]2C(=O)N(C(=O)N3CCN(C(=O)CCCCCc4ccccn4)CC3)[C@@H]2C(=O)O)C1 (stereo partly specified) | 4.6 | 5000 | > 7150 | > 7150 | > 7150 |  | 739 | 
11 | N=C(N)N1CCCC(C[C@H]2C(=O)N(C(=O)N3CCN(C(=O)OCCCOc4ccccc4)CC3)[C@@H]2C(=O)O)C1 (stereo partly specified) | < 1.7 | > 19400 | > 19400 | > 92500 | > 19400 |  | > 1680 | 
12 | CN(CCCCc1ccccc1)C(=O)N1CCN(C(=O)N2C(=O)[C@H](CC3CCCN(C(=N)N)C3)[C@H]2C(=O)O)CC1 (stereo partly specified) | 6 | > 5500 | > 5500 | 3620 | > 5500 | 23.9 | 2170 | > 48
13 | CC(C)C(OC(=O)N1CCN(C(=O)N2C(=O)[C@H](CC3CCCN(C(=N)N)C3)[C@H]2C(=O)O)CC1)C(C)C (stereo in doubt; form 2) [listing 2 of 2 here] |  | > 465 | > 465 | > 465 | > 465 |  | 364 | 
14 | N=C(N)N1CCCC(C[C@H]2C(=O)N(C(=O)N3CCN(C(=O)CCCCCC4CCCCC4)CC3)[C@@H]2C(=O)O)C1 (stereo partly specified) | 1.9 | 12100 | > 17400 | 8420 | > 17400 |  | 1680 | 
15 | CC(C)C(OC(=O)N1CCN(C(=O)N2C(=O)[C@H](CC3CCCN(C(=N)N)C3)[C@H]2C(=O)O)CC1)C(C)C (stereo in doubt; form 1) [listing 2 of 2 here] | 71 |  |  |  |  | > 48 |  | > 48
16 | CC(C)C(OC(=O)N1CCN(C(=O)N2C(=O)[C@H](CC3CCCN(C(=N)N)C3)[C@H]2C(=O)O)CC1)C(C)C (single isomer, unassigned) [listing 2 of 2 here] |  | > 162 | > 162 | > 162 | > 162 |  | > 162 | 
17 | CC(C)(C)NC(=O)N1CCN(C(=O)N2C(=O)[C@H](CCCN=C(N)N)[C@H]2C(=O)O)CC1 |  | 135 | > 8250 | 430 | 2620 |  | 18 | > 48
18 | N=C(N)N1CCCC(C[C@H]2C(=O)N(C(=O)N3CCN(C(=O)NCCCCc4ccccc4)CC3)[C@@H]2C(=O)O)C1 (stereo partly specified) | < 1.7 | > 8780 | > 19400 | > 16100 | > 19400 | 12 | > 1360 | > 48
